Source: US10787413B2, “Derivatives of curcuminoids and use thereof as an anticancer agent” (CHINA MEDICAL UNIVERSITY, priority 2016, dated 2020)
Read-outs that look alike come from different tables or passages of the source.

Assays:
[1] = tested on: HCT-116 colon cancer cell; test: MTT cell viability assay, HCT-116 colon cancer cell; type: cell-based
Method: (§1) Cell viability was evaluated by measuring the reduction in MTT to yield blue formazan. Cells were cultured in 96-well plates, allowed to attach overnight, and then treated with compounds. After treatment, MTT solution (1 mg/ml) was added to each well, and plates were incubated for another 4 h. Medium were removed, blue formazan was dissolved in DMSO, and the absorbance was read at 570 nm^20.

[2] = tested on: MDA-MB-231 breast cancer cell; test: MTT cell viability assay, MDA-MB-231 breast cancer cell; type: cell-based, human
Method: Cell viability was evaluated by measuring the reduction in MTT to yield blue formazan. Cells were cultured in 96-well plates, allowed to attach overnight, and then treated with compounds. After treatment, MTT solution (1 mg/ml) was added to each well, and plates were incubated for another 4 h.

PC3 prostate cancer cell = test: MTT cell viability assay, PC3 prostate cancer cell; type: cell-based
Method: as §1

[3] = HCT-116, treated 24 hours, read-out: IC50 24 hours
[4] = HCT-116, treated 48 hours, read-out: IC50 48 hours
[5] = HCT-116, treated 72 hours, read-out: IC50 72 hours
[6] = MDA-MB-231, treated 24 hours, read-out: IC50 24 hours
[7] = MDA-MB-231, treated 48 hours, read-out: IC50 48 hours
[8] = MDA-MB-231, treated 72 hours, read-out: IC50 72 hours
[9] = PC-3, treated 24 hours, read-out: IC50 24 hours
[10] = PC-3, treated 48 hours, read-out: IC50 48 hours
[11] = PC-3, treated 72 hours, read-out: IC50 72 hours
[12] = Homo sapiens, HCT-116, treated 24 hours, read-out: IC50 24 hours
[13] = Homo sapiens, HCT-116, treated 48 hours, read-out: IC50 48 hours
[14] = Homo sapiens, HCT-116, treated 72 hours, read-out: IC50 72 hours
[15] = Homo sapiens, MDA-MB-231, 24 h, MDA-MB-231, treated 24 hours, read-out: IC50 24 hours
[16] = Homo sapiens, MDA-MB-231, 48 h, MDA-MB-231, treated 48 hours, read-out: IC50 48 hours
[17] = Homo sapiens, MDA-MB-231, 72 h, MDA-MB-231, treated 72 hours, read-out: IC50 72 hours

O=C(/C=C/c1ccc(O)cc1)CC(=O)/C=C/c1ccc(O)cc1 [Bisdemethoxycurcumin, bisdemethoxycurcumin, reference compound]
IC50 [1, 3]: > 100 µM | IC50 [1, 4]: 29.6 ± 0.78 µM | IC50 [1, 5]: 23.7 ± 2.43 µM | IC50 [2, 6]: > 100 µM | IC50 [2, 7]: 26.92 ± 0.19 µM | IC50 [2, 8]: 27.5 ± 0.42 µM | IC50 (PC3 prostate cancer cell; [9]): > 100 µM | IC50 (PC3 prostate cancer cell; [10]): 28.5 ± 1.09 µM | IC50 (PC3 prostate cancer cell; [11]): 26.9 ± 4.36 µM

CCC(CO)(CO)C(=O)Oc1ccc(/C=C/C(=O)/C=C(O)/C=C/c2ccc(OC(=O)C(CC)(CO)CO)c(OC)c2)cc1OC [Compound 22a, ((1E,3Z,6E)-3-Hydroxy-1-oxohepta-1,3,6-triene-1,7-diyl)bis(2-methoxy-4,1-phenylene) bis(2,2-bis(hydroxymethyl)butanoate)]
IC50 [1, 3]: 5.82 ± 0.56 µM | IC50 [1, 4]: 2.4 ± 0.32 µM | IC50 [1, 5]: 1.34 ± 0.04 µM | IC50 [2, 6]: 4.71 ± 0.29 µM | IC50 [2, 7]: 2.56 ± 0.18 µM | IC50 [2, 8]: 2 µM | IC50 (PC3 prostate cancer cell; [9]): 6.91 ± 0.67 µM | IC50 (PC3 prostate cancer cell; [10]): 5.12 ± 0.29 µM | IC50 (PC3 prostate cancer cell; [11]): 4.21 ± 0.14 µM

CCC(CO)(CO)C(=O)Oc1cc(/C=C/C(=O)/C=C(O)/C=C/c2ccc(OC)c(O)c2)ccc1OC [Compound 25]
IC50 [1, 3]: 7.62 ± 0.41 µM | IC50 [1, 4]: 4.77 ± 0.1 µM | IC50 [1, 5]: 3.64 ± 0.03 µM | IC50 [2, 6]: 9.64 ± 0.07 µM | IC50 [2, 7]: 4.94 ± 0.03 µM | IC50 [2, 8]: 3.85 µM | IC50 (PC3 prostate cancer cell; [9]): 15.9 ± 2.23 µM | IC50 (PC3 prostate cancer cell; [10]): 8.74 ± 0.01 µM | IC50 (PC3 prostate cancer cell; [11]): 7.03 ± 0.12 µM

CC(CO)(CO)C(=O)Oc1ccc(/C=C/C(=O)CC(=O)/C=C/c2ccc(OC(=O)C(C)(CO)CO)c(OC(F)(F)F)c2)cc1OC(F)(F)F [Compound 28, ((1E,6E)-3,5-dioxohepta-1,6-diene-1,7-diyl)bis(2-(trifluoromethoxy)-4,1-phenylene) bis(3-hydroxy-2-(hydroxymethyl)-2-methylpropanoate)]
IC50 [1, 12]: 8.94 ± 0.66 µM | IC50 [1, 13]: 7.11 ± 0.07 µM | IC50 [1, 14]: 6.27 ± 0.1 µM | IC50 [2, 15]: 16.6 ± 3.04 µM | IC50 [2, 16]: 8.6 ± 0.74 µM | IC50 [2, 17]: 7.78 ± 0.09 µM | IC50 (PC3 prostate cancer cell; [9]): 67.1 ± 3.39 µM | IC50 (PC3 prostate cancer cell; [10]): 53.9 ± 3.01 µM | IC50 (PC3 prostate cancer cell; [11]): 30.2 ± 2.37 µM

CCC(CO)(CO)C(=O)Oc1ccc(/C=C/C(=O)CC(=O)/C=C/c2ccc(OC(=O)C(CC)(CO)CO)c(OC(F)(F)F)c2)cc1OC(F)(F)F [Compound 29, ((1E,6E)-3,5-dioxohepta-1,6-diene-1,7-diyl)bis(2-(trifluoromethoxy)-4,1-phenylene) bis(2,2-bis(hydroxymethyl)butanoate)]
IC50 [1, 12]: 7.43 ± 0.1 µM | IC50 [1, 13]: 4.69 ± 0.49 µM | IC50 [1, 14]: 4.38 ± 0.26 µM | IC50 [2, 15]: 9.48 ± 0.44 µM | IC50 [2, 16]: 7.79 ± 0.61 µM | IC50 [2, 17]: 7.22 ± 0.41 µM | IC50 (PC3 prostate cancer cell; [9]): 37 ± 0.56 µM | IC50 (PC3 prostate cancer cell; [10]): 29.7 ± 2.83 µM | IC50 (PC3 prostate cancer cell; [11]): 8.1 ± 1.56 µM

COc1cc(/C=C/C(=O)/C=C(O)/C=C/c2cc(OC)c(OC(=O)C(C)(CO)CO)c(OC)c2)cc(OC)c1OC(=O)C(C)(CO)CO [Compound 30, ((1E,3Z,6E)-3-hydroxy-5-oxohepta-1,3,6-triene-1,7-diyl)bis(2,6-dimethoxy-4,1-phenylene) bis(3-hydroxy-2-(hydroxymethyl)-2-methylpropanoate)]
IC50 [1, 12]: 8.34 ± 0.83 µM | IC50 [1, 13]: 4.77 ± 0.44 µM | IC50 [1, 14]: 5.18 ± 0.76 µM | IC50 [2, 15]: 17.5 ± 2.85 µM | IC50 [2, 16]: 8.9 ± 1.28 µM | IC50 [2, 17]: 6.19 ± 0.04 µM | IC50 (PC3 prostate cancer cell; [9]): 7.79 ± 1.42 µM | IC50 (PC3 prostate cancer cell; [10]): 7.7 ± 0.87 µM | IC50 (PC3 prostate cancer cell; [11]): 3.14 ± 0.33 µM

CCc1cc(/C=C/C(=O)CC(=O)/C=C/c2cc(CC)c(OC(=O)C(C)(CO)CO)c(CC)c2)cc(CC)c1OC(=O)C(C)(CO)CO [Compound 31, ((1E,6E)-3,5-dioxohepta-1,6-diene-1,7-diyl)bis(2,6-diethyl-4,1-phenylene) bis(3-hydroxy-2-(hydroxymethyl)-2-methylpropanoate)]
IC50 [1, 12]: 7.21 ± 0.21 µM | IC50 [1, 13]: 3.67 ± 0.01 µM | IC50 [1, 14]: 3.51 ± 0.01 µM | IC50 [2, 15]: 8.68 ± 0.07 µM | IC50 [2, 16]: 7.4 ± 0.63 µM | IC50 [2, 17]: 3.82 ± 0.03 µM | IC50 (PC3 prostate cancer cell; [9]): 19.9 ± 1.27 µM | IC50 (PC3 prostate cancer cell; [10]): 7.49 ± 0.18 µM | IC50 (PC3 prostate cancer cell; [11]): 4.14 ± 1.1 µM

COc1cc(/C=C/C(=O)C(Cc2ccccc2)(Cc2ccccc2)C(=O)/C=C/c2ccc(OC(=O)C(C)(CO)CO)c(OC)c2)ccc1OC(=O)C(C)(CO)CO [Compound 35c, ((1E,6E)-4,4-Dibenzyl-3,5-dioxohepta-1,6-dine-1,7-diyl)bis(2-methoxy-4,1-phenylene) bis(3-hydroxy-2-(hydroxymethyl)-2-methylpropanoate)]
IC50 [1, 3]: 12.9 ± 2.03 µM | IC50 [1, 4]: 7.66 ± 0.61 µM | IC50 [1, 5]: 3.88 ± 0.16 µM | IC50 [2, 6]: 6.03 ± 2.52 µM | IC50 [2, 7]: 2.45 ± 0.24 µM | IC50 [2, 8]: 2.11 ± 0.04 µM | IC50 (PC3 prostate cancer cell; [9]): 17.59 ± 0.14 µM | IC50 (PC3 prostate cancer cell; [10]): 9.09 ± 0.99 µM | IC50 (PC3 prostate cancer cell; [11]): 7.28 ± 0.5 µM

C#CCC(CC#C)(C(=O)/C=C/c1ccc(OC(=O)C(C)(CO)CO)c(OC)c1)C(=O)/C=C/c1ccc(OC(=O)C(C)(CO)CO)c(OC)c1 [Compound 35d, ((1E,6E)-3,5-Dioxo-4,4-di(prop-2-yn-1-yl)hepta-1,6-diene-1,7-diyl)bis(2-methoxy-4,1-phenylene) bis(3-hydroxy-2-(hydroxymethyl)-2-methylpropanoate)]
IC50 [1, 12]: 14.5 ± 1.01 µM | IC50 [1, 14]: 3.92 ± 0.24 µM | IC50 [2, 15]: 28.5 ± 5.29 µM | IC50 [2, 17]: 4.9 µM | IC50 (PC3 prostate cancer cell; [9]): 17.1 ± 1.74 µM | IC50 (PC3 prostate cancer cell; [10]): 11.5 ± 0.96 µM | IC50 (PC3 prostate cancer cell; [11]): 6.7 ± 0.75 µM

CC(CO)(CO)C(=O)Oc1ccc(/C=C/C(=O)C(C)(C)C(=O)/C=C/c2ccc(OC(=O)C(C)(CO)CO)cc2)cc1 [Compound 36, ((1E,6E)-4,4-Dimethyl-3,5-dioxohepta-1,6-diene-1,7-diyl)bis(4,1-phenylene) bis(3-hydroxy-2-(hydroxymethyl)-2-methylpropanoate)]
IC50 [1, 12]: 4.12 ± 0.1 µM | IC50 [1, 13]: 3.43 ± 0.2 µM | IC50 [1, 14]: 2.63 ± 0.06 µM | IC50 [2, 15]: 7.74 ± 0.41 µM | IC50 [2, 16]: 3.13 ± 0.04 µM | IC50 [2, 17]: 2.89 µM | IC50 [2, 8]: 2.98 ± 0.09 µM | IC50 (PC3 prostate cancer cell; [9]): 17.1 ± 1.81 µM | IC50 (PC3 prostate cancer cell; [10]): 7.49 ± 0.33 µM | IC50 (PC3 prostate cancer cell; [11]): 3.62 ± 0.11 µM

COc1ccc(/C=C/C(=O)C(C)(C)C(=O)/C=C/c2ccc(OC)c(OC(=O)C(C)(CO)CO)c2)cc1OC(=O)C(C)(CO)CO [Compound 37, ((1E,6E)-4,4-Dimethyl-3,5-dioxohepta-1,6-dien-1,7-diyl)bis(2-methoxy-5,1-phenylene) bis(3-hydroxy-2-(hydroxymethyl)-2-methylpropanoate)]
IC50 [1, 12]: 5.9 ± 1.87 µM | IC50 [1, 13]: 2.71 ± 0.39 µM | IC50 [1, 14]: 1.26 ± 0.04 µM | IC50 [2, 15]: 7.6 ± 0.94 µM | IC50 [2, 16]: 2.71 ± 0.23 µM | IC50 [2, 17]: 2.7 µM | IC50 (PC3 prostate cancer cell; [9]): 2.86 ± 0.83 µM | IC50 (PC3 prostate cancer cell; [10]): 1.59 ± 0.24 µM | IC50 (PC3 prostate cancer cell; [11]): 1.84 ± 0.12 µM

COc1cc(/C=C/C(=O)CC(=O)/C=C/c2ccc(OC(=O)C(CO)(CO)CO)c(OC)c2)ccc1O [Compound 38a, 4-((1E,6E)-7-(4-hydroxy-3-methoxyphenyl)-3,5-dioxohept-1,6-den-1-yl)-2-methoxyphenyl 3-hydroxy-2,2-bis(hydroxymethyl)propanoate]
IC50 [1, 12]: 39.59 ± 0.23 µM | IC50 [1, 13]: 18.4 ± 0.62 µM | IC50 [1, 14]: 9.86 ± 0.01 µM | IC50 [2, 15]: 47.3 ± 1.31 µM | IC50 [2, 16]: 21.1 ± 1.01 µM | IC50 [2, 17]: 17.5 ± 1.62 µM | IC50 (PC3 prostate cancer cell; [9]): 46.5 ± 0.48 µM | IC50 (PC3 prostate cancer cell; [10]): 34.9 ± 0.2 µM | IC50 (PC3 prostate cancer cell; [11]): 32.7 ± 0.56 µM

COc1cc(/C=C/C(=O)CC(=O)/C=C/c2ccc(OC(=O)C(CO)(CO)COC(=O)C(CO)(CO)CO)c(OC)c2)ccc1O [Compound 38b]
IC50 [1, 12]: 75 ± 3.1 µM | IC50 [1, 13]: 61.3 ± 2.85 µM | IC50 [1, 14]: 43.7 ± 1.36 µM | IC50 [2, 15]: 82.6 ± 1.67 µM | IC50 [2, 16]: 64.8 ± 2.39 µM | IC50 [2, 17]: 55.3 ± 3.2 µM | IC50 (PC3 prostate cancer cell; [9]): ≥ 100 µM | IC50 (PC3 prostate cancer cell; [10]): 67.5 ± 1.25 µM | IC50 (PC3 prostate cancer cell; [11]): 63.94 ± 0.47 µM
